Experimental data published in publication PMC4633044, “Quorum Sensing Peptides Selectively Penetrate the Blood-Brain Barrier” (PLoS ONE, 2015).

What was measured:
[1] = system: blood-brain barrier
[2] = system: mouse brain (blood-brain barrier); details: in vivo; for Kin / Kin (text): iv
[3] = system: mouse brain (blood-brain barrier); details: general value for the positive control; cited from earlier work
From the text: To evaluate these transport results, we compared them with the net clearances of oth ...

[4] = system: mouse brain (blood-brain barrier); details: in vivo
[5] = system: mouse brain capillaries / parenchyma; details: in vivo, iv
[6] = mouse, in vivo, iv
[7] = 0, 30, 120 min

dermorphin [reference compound]
BBB influx classification [1]: low influx | Brain distribution volume, Vg [2]: 23.05 ± 1.18 µL/g | Kin [2]: 5.26 ± 0.93 µL/g/min | Kin (text) [2]: 5.26 μl/(gxmin) | clearance as % of the plasma flow to the brain [3]: about 0.05% | kout [4]: -0.11 ± 0.02 min⁻¹ | Capillary fraction [5]: 37.0% | Parenchymal fraction [5]: 63.0% | Tissue distribution (in words) [6]: mainly distributed in the duodenum, followed by the liver

GLWEDLLYNINRYAHYIT [BIP-2, bacteriocin-inducing peptide 2]
BBB influx classification [1]: low influx | Brain distribution volume, Vg [2]: 18.22 ± 1.43 µL/g | Kin [2]: 2.68 ± 0.66 µL/g/min | Kin (text) [2]: 2.68 µL/g/min | half-life in human plasma [7]: 5.345 h | kout [4]: -0.06 ± 0.02 min⁻¹ | kout (text) [4]: -0.06 ± 0.02 | Capillary fraction [5]: 23.1% | Capillary fraction, first animal (Fig 3) [5]: 23.14% | Capillary fraction, second animal (Fig 3) [5]: 23.04% | Parenchyma fraction, first animal (Fig 3) [5]: 76.86% | Parenchyma fraction, second animal (Fig 3) [5]: 76.96% | Parenchymal fraction [5]: 76.9% | Tissue distribution (in words) [6]: strongly accumulated in the liver

SYPGWSW [PhrCACET1]
BBB influx classification [1]: very high influx | Brain distribution volume, Vg [2]: 54.90 ± 5.75 µL/g | Kin [2]: 20.87 ± 7.97 µL/g/min | Kin (text) [2]: 20.87 µL/g/min | kout [4]: -0.02 ± 0.04 min⁻¹ | kout (text) [4]: -0.02 ± 0.03 | Capillary fraction [5]: 15.1% | Capillary fraction, first animal (Fig 3) [5]: 13.97% | Capillary fraction, second animal (Fig 3) [5]: 16.20% | Parenchyma fraction, first animal (Fig 3) [5]: 86.03% | Parenchyma fraction, second animal (Fig 3) [5]: 83.80% | Parenchymal fraction [5]: 84.9%
